Measured values: EP1517674B1, “PREPARATIONS FOR THE INTRANASAL APPLICATION OF SELECTED CGRP A[…] FROM AMINO ACIDS AND A METHOD FOR THEIR PRODUCTION” (Boehringer Ingelheim Pharma GmbH & Co. KG, priority 2002, dated 2003)

Assay: Stability test of higher-concentration nasal spray solutions (hydrochloride in aqueous solution, packed in aluminium pouch)
Type: physicochemical
Details: for Gehalt an Wirkstoff (A): as free base
Description: Stabilitätsprüfung höher konzentrierter erfindungsgemäßer Nasalspray-Lösungen:
Die nachfolgende Tabelle zeigt, dass die oxidative Zersetzung des nachstehend aufgeführten Wirkstoffs
Die zum Teil (insbesondere bei 40°C) hohe Gesamtzersetzung beruht auf Hydrolyse.
Der in der Tabelle 1 angegebene Gehalt an Wirkstoff (A) bezieht sich jeweils auf die ursprünglich eingewogene freie Base.

[1] = Wirkstoff-Konzentration 15 %, 3-Monats-Wert, 25°C, 129600 min
[2] = Wirkstoff-Konzentration 15 %, 3-Monats-Wert, 40°C, 129600 min
[3] = Wirkstoff-Konzentration 15 %, 6-Monats-Wert, 25°C, 259200 min
[4] = Wirkstoff-Konzentration 15 %, 6-Monats-Wert, 40°C, 259200 min
[5] = Wirkstoff-Konzentration 15 %, 6-Wochen-Wert, 25°C, 60480 min
[6] = Wirkstoff-Konzentration 15 %, 6-Wochen-Wert, 40°C, 60480 min
[7] = Wirkstoff-Konzentration 15 %, Anfangswert
[8] = Wirkstoff-Konzentration 20 %, 3-Monats-Wert, 25°C, 129600 min
[9] = Wirkstoff-Konzentration 20 %, 3-Monats-Wert, 40°C, 129600 min
[10] = Wirkstoff-Konzentration 20 %, 6-Monats-Wert, 25°C, 259200 min
[11] = Wirkstoff-Konzentration 20 %, 6-Monats-Wert, 40°C, 259200 min
[12] = Wirkstoff-Konzentration 20 %, 6-Wochen-Wert, 25°C, 60480 min
[13] = Wirkstoff-Konzentration 20 %, 6-Wochen-Wert, 40°C, 60480 min
[14] = Wirkstoff-Konzentration 20 %, Anfangswert
[15] = Wirkstoff-Konzentration 30 %, 3-Monats-Wert, 25°C, 129600 min
[16] = Wirkstoff-Konzentration 30 %, 3-Monats-Wert, 40°C, 129600 min
[17] = Wirkstoff-Konzentration 30 %, 6-Monats-Wert, 25°C, 259200 min
[18] = Wirkstoff-Konzentration 30 %, 6-Monats-Wert, 40°C, 259200 min
[19] = Wirkstoff-Konzentration 30 %, 6-Wochen-Wert, 25°C, 60480 min
[20] = Wirkstoff-Konzentration 30 %, 6-Wochen-Wert, 40°C, 60480 min
[21] = Wirkstoff-Konzentration 30 %, Anfangswert

For `NCCCC[C@H](NC(=O)[C@@H](Cc1cc(Br)c(O)c(Br)c1)NC(=O)N1CCC(N2Cc3ccccc3NC2=O)CC1)C(=O)N1CCN(c2ccncc2)CC1` [(A), 1-[N^2-[3,5-Dibrom-N-[[4-(3,4-dihydro-2(1 H)-oxochinazolin-3-yl)-1-piperidinyl]-carbonyl]-D-tyrosyl]-L-lysyl]-4-(4-pyridinyl)-piperazin], the Gesamt-Zersetzung [1] was 1,69%, the “Zersetzung durch Oxidation” value [1] was 0,64% and the “Gehalt an Wirkstoff (A)” value (Wirkstoff-Konzentration 15 %, 3-Monats-Wert, 25°C) was 147,7mg/ml. The Gesamt-Zersetzung [2] was 8,22%, the “Zersetzung durch Oxidation” value [2] was 0,55% and the “Gehalt an Wirkstoff (A)” value (Wirkstoff-Konzentration 15 %, 3-Monats-Wert, 40°C) was 139,4mg/ml. The Gesamt-Zersetzung [3] was 2,07%, the “Zersetzung durch Oxidation” value [3] was 0,82% and the “Gehalt an Wirkstoff (A)” value (Wirkstoff-Konzentration 15 %, 6-Monats-Wert, 25°C) was 147,7mg/ml. For the same molecule, the Gesamt-Zersetzung [4] was 15.33%, the “Zersetzung durch Oxidation” value [4] was 0,78% and the “Gehalt an Wirkstoff (A)” value (Wirkstoff-Konzentration 15 %, 6-Monats-Wert, 40°C) was 131,7mg/ml. For the same molecule, the Gesamt-Zersetzung [5] was 1,60%, the “Zersetzung durch Oxidation” value [5] was 0,72% and the “Gehalt an Wirkstoff (A)” value (Wirkstoff-Konzentration 15 %, 6-Wochen-Wert, 25°C) was 148,1mg/ml. For the same molecule, the Gesamt-Zersetzung [6] was 4,46%, the “Zersetzung durch Oxidation” value [6] was 0,52% and the “Gehalt an Wirkstoff (A)” value (Wirkstoff-Konzentration 15 %, 6-Wochen-Wert, 40°C) was 142,3mg/ml. For the same molecule, the Gesamt-Zersetzung [7] was 1,23%, the “Zersetzung durch Oxidation” value [7] was 0,59% and the “Gehalt an Wirkstoff (A)” value [7] was 148,6mg/ml. The Gesamt-Zersetzung [8] was 1,50%, the “Zersetzung durch Oxidation” value [8] was 0,53% and the “Gehalt an Wirkstoff (A)” value (Wirkstoff-Konzentration 20 %, 3-Monats-Wert, 25°C) was 202,8mg/ml. For the same molecule, the Gesamt-Zersetzung [9] was 8,23%, the “Zersetzung durch Oxidation” value [9] was 0,47% and the “Gehalt an Wirkstoff (A)” value (Wirkstoff-Konzentration 20 %, 3-Monats-Wert, 40°C) was 191,4mg/ml. For the same molecule, the Gesamt-Zersetzung [10] was 1,99%, the “Zersetzung durch Oxidation” value [10] was 0,77% and the “Gehalt an Wirkstoff (A)” value (Wirkstoff-Konzentration 20 %, 6-Monats-Wert, 25°C) was 201,8m/ml. For the same molecule, the Gesamt-Zersetzung [11] was 14,61%, the “Zersetzung durch Oxidation” value [11] was 0,74% and the “Gehalt an Wirkstoff (A)” value (Wirkstoff-Konzentration 20 %, 6-Monats-Wert, 40°C) was 182,8mg/ml. The Gesamt-Zersetzung [12] was 1,09%, the “Zersetzung durch Oxidation” value [12] was 0,54% and the “Gehalt an Wirkstoff (A)” value (Wirkstoff-Konzentration 20 %, 6-Wochen-Wert, 25°C) was 198,7mg/ml. For the same molecule, the Gesamt-Zersetzung [13] was 3,97%, the “Zersetzung durch Oxidation” value [13] was 0,55% and the “Gehalt an Wirkstoff (A)” value (Wirkstoff-Konzentration 20 %, 6-Wochen-Wert, 40°C) was 192,1mg/ml. The Gesamt-Zersetzung [14] was 1,27%, the “Zersetzung durch Oxidation” value [14] was 0,56% and the “Gehalt an Wirkstoff (A)” value [14] was 197,9mg/ml. For the same molecule, the Gesamt-Zersetzung [15] was 1,48%, the “Zersetzung durch Oxidation” value [15] was 0,60% and the “Gehalt an Wirkstoff (A)” value (Wirkstoff-Konzentration 30 %, 3-Monats-Wert, 25°C) was 270 mg/mL. The Gesamt-Zersetzung [16] was 7.81%, the “Zersetzung durch Oxidation” value [16] was 0,59% and the “Gehalt an Wirkstoff (A)” value (Wirkstoff-Konzentration 30 %, 3-Monats-Wert, 40°C) was 260 mg/mL. For the same molecule, the Gesamt-Zersetzung [17] was 2,04%, the “Zersetzung durch Oxidation” value [17] was 0,91% and the “Gehalt an Wirkstoff (A)” value (Wirkstoff-Konzentration 30 %, 6-Monats-Wert, 25°C) was 273 mg/mL. The Gesamt-Zersetzung [18] was 13,36%, the “Zersetzung durch Oxidation” value [18] was 0,84% and the “Gehalt an Wirkstoff (A)” value (Wirkstoff-Konzentration 30 %, 6-Monats-Wert, 40°C) was 246 mg/mL. For the same molecule, the Gesamt-Zersetzung [19] was 1,19%, the “Zersetzung durch Oxidation” value [19] was 0,62% and the “Gehalt an Wirkstoff (A)” value (Wirkstoff-Konzentration 30 %, 6-Wochen-Wert, 25°C) was 264 mg/mL. For the same molecule, the Gesamt-Zersetzung [20] was 3,95%, the “Zersetzung durch Oxidation” value [20] was 0,58% and the “Gehalt an Wirkstoff (A)” value (Wirkstoff-Konzentration 30 %, 6-Wochen-Wert, 40°C) was 260 mg/mL. The Gesamt-Zersetzung [21] was 1,20%, the “Zersetzung durch Oxidation” value [21] was 0,56% and the “Gehalt an Wirkstoff (A)” value [21] was 269 mg/mL. The “oxidative Zersetzung” value (hydrochloride in aqueous solution, over a long period) was “praktisch unverändert”.
